Emax data for 65 compounds are collected here from patent US9957271B2, “Substituted bicyclic aza-heterocycles and analogues as sirtuin modulators” (GlaxoSmithKline, LLC, priority 2012, dated 2018).

A value given as a limit tells only on which side of the number the result lay.

The test has as its target T1, SIRT1 (Homo sapiens, UniProt Q96EB6).
T1 sequence (Q96EB6 1-747): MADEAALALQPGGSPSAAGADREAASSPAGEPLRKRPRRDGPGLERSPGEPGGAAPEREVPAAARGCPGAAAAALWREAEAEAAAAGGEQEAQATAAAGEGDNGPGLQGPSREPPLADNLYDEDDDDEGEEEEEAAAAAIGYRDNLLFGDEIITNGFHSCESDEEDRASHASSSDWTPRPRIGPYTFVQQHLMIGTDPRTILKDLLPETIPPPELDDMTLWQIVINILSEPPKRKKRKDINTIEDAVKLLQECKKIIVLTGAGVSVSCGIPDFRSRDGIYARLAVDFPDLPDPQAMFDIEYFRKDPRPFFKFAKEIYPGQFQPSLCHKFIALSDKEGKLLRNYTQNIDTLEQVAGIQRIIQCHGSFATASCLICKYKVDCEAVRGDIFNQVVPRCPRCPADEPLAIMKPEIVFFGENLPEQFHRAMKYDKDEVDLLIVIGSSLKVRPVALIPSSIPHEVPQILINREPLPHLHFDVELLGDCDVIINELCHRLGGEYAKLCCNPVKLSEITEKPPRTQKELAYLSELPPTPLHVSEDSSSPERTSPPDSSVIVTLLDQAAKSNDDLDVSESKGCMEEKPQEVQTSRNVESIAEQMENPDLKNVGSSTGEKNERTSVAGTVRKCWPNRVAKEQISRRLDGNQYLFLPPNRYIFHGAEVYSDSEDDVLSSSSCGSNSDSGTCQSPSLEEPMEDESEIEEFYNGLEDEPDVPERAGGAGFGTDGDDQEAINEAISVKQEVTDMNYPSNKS
Kind of test: Trp mass spectrometry assay of SIRT1 activity. As to conditions: percent maximum fold activation of SIRT1; Trp peptide substrate; read-out: Trp % Fold Act. The format is biochemical. The method, boiled down: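 Activation readout: EC1.5 (concentration raising activity 50% over control) and percent maximum activation, from mass-spec quantitation of OAADPR or deacetylated Trp peptide. Reaction: 0.5 μM acetylated Trp peptide, 120 μM βNAD+, 10 nM bacterially expressed N-His SIRT1, pH 7.5 HEPES buffer with […], 25 min at 25° C.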
Regarding `O=C(Nc1ccccn1)c1cnn2ccc(N3CCC(C(F)(F)F)C3)nc12` (centres unmarked) [Compound 1011], the Emax was at least 350%.
Consider `O=C(Nc1cccnc1)c1cnn2ccc(N3CCC(C(F)(F)F)C3)nc12` (centres unmarked) [Compound 1012], for which the Emax was at least 350%.
Next, `O=C(Nc1cncc(F)c1)c1cnn2ccc(N3CCC(C(F)(F)F)C3)nc12` (centres unmarked) [Compound 1013]: at least 350%; `O=C(Nc1cccnn1)c1cnn2ccc(N3CCC(C(F)(F)F)C3)nc12` (centres unmarked) [Compound 1014]: at least 350%; `Cc1nc2ccc(N3CCC[C@H]3C(F)(F)F)nn2c1C(=O)Nc1ccccn1` [Compound 1015]: at least 350%.
Turning to `Cc1nc2ccc(N3CCC[C@H]3C(F)(F)F)nn2c1C(=O)Nc1cccnc1` [Compound 1016], the Emax was at least 350%.
On to `Cc1nc2ccc(N3CCC[C@H]3C(F)(F)F)nn2c1C(=O)Nc1cncc(F)c1` [Compound 1017], for which the Emax is at least 350%.
In the case of `Cc1nc2ccc(N3CCC[C@H]3C(F)(F)F)nn2c1C(=O)Nc1cccnn1` [Compound 1018] it was at least 350%; in that of `O=C(Nc1cccnc1)c1cnc2ccc(N3CCC[C@@H]3C(F)(F)F)nn12` [Compound 1019], at least 350%.
`Cn1cc2ccc(NC(=O)c3cnc4ccc(N5CCC[C@@H]5C(F)(F)F)nn34)cc2n1` [Compound 1020]: the Emax was at least 350%.
For `O=C(Nc1cccnn1)c1cnn2ccc(N3CCCCC3C(F)(F)F)nc12` (centres unmarked) [Compound 1021], the Emax was at least 350%.
In the case of `O=C(Nc1cccnn1)c1cnn2ccc(N3CCCC3C(F)(F)F)nc12` (centres unmarked) [Compound 1022] it was at least 350%; in that of `O=C(Nc1cccnn1)c1cnn2ccc(N3CCCC(C(F)(F)F)C3)nc12` (centres unmarked) [Compound 1023], at least 350%.
As to `COc1nccc(NC(=O)c2cnn3ccc(N4CCC[C@H]4C(F)(F)F)nc23)n1` [Compound 1024], the Emax was at least 350%.
With `O=C(Nc1ccncn1)c1cnn2ccc(N3CCC[C@H]3C(F)(F)F)nc12` [Compound 1025], the Emax is at least 350%.
Turning to `O=C(Nc1cccnc1)c1cnn2ccc(N3CCC[C@H]3C(F)(F)F)nc12` [Compound 1026], the Emax was at least 350%.
In the case of `Cc1cncc(NC(=O)c2cnn3ccc(N4CCC[C@H]4C(F)(F)F)nc23)c1` [Compound 1027] it was at least 350%; in that of `O=C(Nc1cncc(F)c1)c1cnn2ccc(N3CCC[C@H]3C(F)(F)F)nc12` [Compound 1028], at least 350%; in that of `O=C(Nc1ccccn1)c1cnn2ccc(N3CCC[C@H]3C(F)(F)F)nc12` [Compound 1029], at least 350%.
Next, `O=C(Nc1cccnn1)c1cnn2ccc(N3CCC[C@H]3C(F)(F)F)nc12` [Compound 1030]: at least 350%.
Next, `O=C(Nc1cnccn1)c1cnn2ccc(N3CCC[C@H]3C(F)(F)F)nc12` [Compound 1031]: at least 350%.
Turning to `Cc1nc(NC(=O)c2cnn3ccc(N4CCC[C@H]4C(F)(F)F)nc23)sc1C` [Compound 1032, (S)-N-(4,5-dimethylthiazol-2-yl)-5-(2-(trifluoromethyl)pyrrolidin-1-yl)pyrazolo[1,5-a]pyrimidine-3-carboxamide], the Emax is at least 350%.
With `Cc1nc(NC(=O)c2c(C)nn3ccc(N4CCC[C@H]4C(F)(F)F)nc23)sc1C` [Compound 1033], the Emax is at least 350%.
Regarding `Cc1nn2ccc(N3CCC[C@H]3C(F)(F)F)nc2c1C(=O)Nc1cccnn1` [Compound 1034], the Emax is at least 350%.
Regarding `Cc1nn2ccc(N3CCC[C@H]3C(F)(F)F)nc2c1C(=O)Nc1ccccn1` [Compound 1035], the Emax was at least 350%.
`Cc1cncc(NC(=O)c2c(C)nn3ccc(N4CCC[C@H]4C(F)(F)F)nc23)c1` [Compound 1036]: the Emax was at least 350%.
Next, `CC1CCCN1c1ccn2ncc(C(=O)Nc3ccccn3)c2n1` (centres unmarked) [Compound 1037]: at least 350%; `Cc1nc(NC(=O)c2cnn3ccc(N4CCCC4C)nc23)sc1C` (centres unmarked) [Compound 1038]: under 350%; `CC1CCCN1c1ccn2ncc(C(=O)Nc3cncc(F)c3)c2n1` (centres unmarked) [Compound 1039]: at least 350%.
Next, `CC1CCCN1c1ccn2ncc(C(=O)Nc3cccnn3)c2n1` (centres unmarked) [Compound 1040]: at least 350%; `CC1CCCN1c1ccn2ncc(C(=O)Nc3cnccn3)c2n1` (centres unmarked) [Compound 1041]: under 350%.
In the case of `CC1CCCN1c1ccn2ncc(C(=O)Nc3ccncn3)c2n1` (centres unmarked) [Compound 1042], the Emax is under 350%.
`COc1nccc(NC(=O)c2cnn3ccc(N4CCCC4C)nc23)n1` (centres unmarked) [Compound 1043]: the Emax was under 350%.
`CC1CCCN1c1ccn2ncc(C(=O)Nc3cccnc3)c2n1` (centres unmarked) [Compound 1044]: the Emax was at least 350%.
Next, `Cc1cncc(NC(=O)c2cnn3ccc(N4CCCC4C)nc23)c1` (centres unmarked) [Compound 1045]: under 350%; `Cc1nn2ccc(N3CCC[C@H]3C(F)(F)F)nc2c1C(=O)Nc1cnccn1` [Compound 1046]: at least 350%.
Next, `Cc1nn2ccc(N3CCC[C@H]3C(F)(F)F)nc2c1C(=O)Nc1cccnc1` [Compound 1047]: at least 350%; `Cc1nn2ccc(N3CCC[C@H]3C(F)(F)F)nc2c1C(=O)Nc1ccncn1` [Compound 1048]: at least 350%; `COc1nccc(NC(=O)c2c(C)nn3ccc(N4CCC[C@H]4C(F)(F)F)nc23)n1` [Compound 1049]: at least 350%.
Next, `Cc1nn2ccc(N3CCC[C@H]3C(F)(F)F)nc2c1C(=O)Nc1cncc(F)c1` [Compound 1050]: at least 350%.
For `COc1nccc(NC(=O)c2cnc3ccc(N4CCC[C@@H]4C)nn23)n1` [Compound 1051], the Emax is under 350%.
For the compound `C[C@H]1CCCN1c1ccc2ncc(C(=O)Nc3ccc(F)cn3)n2n1` [Compound 1052], the Emax is under 350%.
For the compound `C[C@H]1CCCN1c1ccc2ncc(C(=O)Nc3ccccn3)n2n1` [Compound 1053], the Emax was at least 350%.
On to `C[C@H]1CCCN1c1ccc2ncc(C(=O)Nc3cnccn3)n2n1` [Compound 1054], for which the Emax was under 350%.
In the case of `C[C@H]1CCCN1c1ccc2ncc(C(=O)Nc3cccnn3)n2n1` [Compound 1055], the Emax was at least 350%.
As for `C[C@H]1CCCN1c1ccc2ncc(C(=O)Nc3cccnc3)n2n1` [Compound 1056], the Emax is under 350%.
Turning to `C[C@H]1CCCN1c1ccc2ncc(C(=O)Nc3ccncn3)n2n1` [Compound 1057], the Emax was under 350%.
For the compound `Cc1cncc(NC(=O)c2cnc3ccc(N4CCC[C@@H]4C)nn23)c1` [Compound 1058], the Emax is under 350%.
In the case of `C[C@H]1CCCN1c1ccc2ncc(C(=O)Nc3cncc(F)c3)n2n1` [Compound 1059], the Emax was under 350%.
Next, `O=C(Nc1ccccn1)c1cnn2ccc(N3CCC(C(F)(F)F)CC3)nc12` [Compound 1060]: at least 350%; `O=C(Nc1cnccn1)c1cnn2ccc(N3CCC(C(F)(F)F)CC3)nc12` [Compound 1061]: at least 350%.
`O=C(Nc1cccnn1)c1cnn2ccc(N3CCC(C(F)(F)F)CC3)nc12` [Compound 1062]: the Emax was at least 350%.
For `O=C(Nc1ccncn1)c1cnn2ccc(N3CCC(C(F)(F)F)CC3)nc12` [Compound 1063], the Emax was at least 350%.
`COc1nccc(NC(=O)c2cnn3ccc(N4CCC(C(F)(F)F)CC4)nc23)n1` [Compound 1064]: the Emax was at least 350%.
On to `Cc1nc(NC(=O)c2cnn3ccc(N4CCC(C(F)(F)F)CC4)nc23)sc1C` [Compound 1065], for which the Emax is at least 350%.
As for `O=C(Nc1cccnc1)c1cnn2ccc(N3CCC(C(F)(F)F)CC3)nc12` [Compound 1066], the Emax was at least 350%.
`O=C(Nc1cncc(F)c1)c1cnn2ccc(N3CCC(C(F)(F)F)CC3)nc12` [Compound 1067]: the Emax was at least 350%.
`Cc1nn2ccc(N3CCC[C@@H]3C(F)(F)F)nc2c1C(=O)Nc1ccncn1` [Compound 1068]: the Emax is at least 350%.
`Cc1nn2ccc(N3CCC[C@@H]3C(F)(F)F)nc2c1C(=O)Nc1cncc(F)c1` [Compound 1069]: the Emax is at least 350%.
Regarding `Cc1nn2ccc(N3CCC[C@@H]3C(F)(F)F)nc2c1C(=O)Nc1ccccn1` [Compound 1070], the Emax is at least 350%.
As to `Cc1nn2ccc(N3CCC[C@@H]3C(F)(F)F)nc2c1C(=O)Nc1cccnc1` [Compound 1071], the Emax is at least 350%.
In the case of `Cc1cncc(NC(=O)c2c(C)nn3ccc(N4CCC[C@@H]4C(F)(F)F)nc23)c1` [Compound 1072], the Emax is at least 350%.
Regarding `Cc1cncc(NC(=O)c2cnn3ccc(N4CCC(C(F)(F)F)CC4)nc23)c1` [Compound 1073], the Emax is at least 350%.
For the compound `O=C(Nc1cc(-c2cnco2)ccn1)c1cnn2ccc(N3CCC(C(F)(F)F)CC3)nc12` [Compound 1074], the Emax was at least 350%.
Take `Cc1nn2ccc(N3CCC[C@@H]3C(F)(F)F)nc2c1C(=O)Nc1cccnn1` [Compound 1075]: the Emax was at least 350%.
